The text below walks through data of patent publication US9126999B2, “Tetrahydropyrazolopyrimidine compounds” (EISAI R&D MANAGEMENT CO., LTD., priority 2012, dated 2015).

pIC50: −log10 of the molar value. Where two headings read alike, the source gives them in different places.

The test concerns the target T1, Human TLR8 (Homo sapiens, UniProt Q9NR97).
T1 construct: host or cells: HEK-293 stably expressing human TLR8, then transfected with pNiFty2(NF-kappaB)-luciferase
T1 sequence (Q9NR97 27-1041): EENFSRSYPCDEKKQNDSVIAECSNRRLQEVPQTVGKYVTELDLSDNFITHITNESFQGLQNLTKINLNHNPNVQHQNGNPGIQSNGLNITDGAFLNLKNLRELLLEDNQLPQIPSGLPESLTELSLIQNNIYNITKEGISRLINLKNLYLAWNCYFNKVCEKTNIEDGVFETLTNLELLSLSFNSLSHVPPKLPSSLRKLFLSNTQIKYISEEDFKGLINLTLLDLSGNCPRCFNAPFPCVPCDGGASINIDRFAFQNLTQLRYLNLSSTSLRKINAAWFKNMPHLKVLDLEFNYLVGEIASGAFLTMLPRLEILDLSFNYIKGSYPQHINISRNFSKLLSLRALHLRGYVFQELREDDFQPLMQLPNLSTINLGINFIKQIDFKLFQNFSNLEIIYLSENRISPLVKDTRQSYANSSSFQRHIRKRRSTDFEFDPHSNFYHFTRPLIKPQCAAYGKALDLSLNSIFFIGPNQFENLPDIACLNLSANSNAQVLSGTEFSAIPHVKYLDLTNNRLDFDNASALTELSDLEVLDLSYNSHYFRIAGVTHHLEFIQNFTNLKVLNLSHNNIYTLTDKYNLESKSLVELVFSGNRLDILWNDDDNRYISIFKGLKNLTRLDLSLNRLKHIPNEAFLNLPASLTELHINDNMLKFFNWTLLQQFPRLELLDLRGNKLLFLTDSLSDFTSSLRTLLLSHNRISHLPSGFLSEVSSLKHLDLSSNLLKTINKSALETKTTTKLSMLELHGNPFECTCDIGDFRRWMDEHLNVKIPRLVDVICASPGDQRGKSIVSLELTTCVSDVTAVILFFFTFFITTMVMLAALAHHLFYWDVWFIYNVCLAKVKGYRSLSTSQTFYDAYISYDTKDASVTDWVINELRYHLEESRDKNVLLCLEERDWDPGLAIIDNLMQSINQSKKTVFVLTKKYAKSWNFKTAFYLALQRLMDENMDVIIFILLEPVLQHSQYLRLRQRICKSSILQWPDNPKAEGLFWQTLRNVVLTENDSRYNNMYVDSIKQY
Put plainly: HEK-293 NF-kappaB luciferase reporter assay, CL097 stimulus. Format: cell-based. An excerpt: In vitro pharmacology: HEK-293 cells (ATCC) were engineered to stably express a NF-kappaB transcription factor inducible E-selectin (ELAM-1) luciferase reporter derived from the plasmid pGL3 (Promega) containing base pairs −2241 bp to −254 bp from the promoter of the human E-selectin gene (Accession No. NM_000450). These cells were then subsequently engineered to stably and individually express human TLR4, TLR7 or TLR9 full-length ORF cDNAs. Human TLR4 cDNA (Accession No. NM_138554) was cloned into pcDNA 3.0 expression vector (Invitrogen). TLR4 transfected cells were also engineered to express human MD-2 co-receptor [MD-2 cDNA (Accession No. NM_015364) was cloned into the pEF-BOS vector] and were supplemented with 10 nM soluble CD14 (R&D Systems) in the media to optimize LPS responsiveness. Human TLR9 cDNA (Accession No. NM_017442) was cloned into the pBluescript II KS vector (Agilent). Human TLR7 cDNA (Accession No. NM_016562) was obtained from OriGene. HEK-293 cells stably expressing human TLR8 (Accession No. NM_138636) or mouse TLR7 (Accession No. NM_133211) were purchased from InvivoGen and were then stably transfected with pNiFty2(NF-kappaB)-luciferase reporter plasmid (InvivoGen). Each cell type was plated in Dulbecco's modified Eagle's medium (DMEM) containing 10% fetal bovine serum (FBS) at a density of 2.22×10^5 cells/ml into a 384-well plate and incubated for 2 days at 37° C., 5% CO2. Varying concentrations of antagonist compounds were then added. Cells were then incubated for another 30 minutes before adding the appropriate TLR agonist as follows (final concentrations indicated): lipopolysaccharide (LPS; Sigma) at 10 ng/ml for TLR4, CL097 (InvivoGen) at 3 ug/ml for human TLR7 and TLR8 and mouse TLR7, and CpG-2006-2A [sequence: […] (SEQ ID NO: 1) with phosphorothioate backbone, synthesized by Sigma-Aldrich] at 0.6 uM for TLR9.

Setting [1] is: human TLR8 in the HEK-293 assay format, read-out: HEK/TLR8 IC50.

Take `COc1ccc([C@@H]2C[C@H](C(F)(F)F)n3nc(-c4ccncc4)cc3N2)cc1OC` [ER-885454]: the pIC50 under setting [1] is 6.55.

Consider `COc1ccc([C@@H]2C[C@H](C(F)(F)F)n3nc(-c4ccc(C(=O)N5CCNCC5)cc4)cc3N2)cc1OC` [ER-892887, (4-((5S,7R)-5-(3,4-dimethoxyphenyl)-7-(trifluoromethyl)-4,5,6,7-tetrahydropyrazolo[1,5-a]pyrimidin-2-yl)phenyl)(piperazin-1-yl)methanone], for which, for the setting “HEK-293, ligand CL097, analyte NFkB-luciferase, read-out: IC50”, the pIC50 was 7.10.

For the compound `Cc1nn(C)cc1[C@@H]1C[C@H](C(F)(F)F)n2nc(-c3ccc(NC(N)=O)cc3)cc2N1` [ER-894595], the pIC50 under setting [1] was 6.49. `Cc1nn(C)cc1[C@H]1C[C@@H](C(F)(F)F)n2nc(-c3ccc(NC(N)=O)cc3)cc2N1` [ER-894596]: the pIC50 under setting [1] is 6.27.
